Measurements from a melting point compilation (Tetko et al.; mined from patent text by program, amines drawn as free bases though some values may be those of a salt).

| SMILES | melting point |
| --- | --- |
| COCC(=O)Nc1nc(N)nc(NC2CC2)n1 | 152 to 157 °C |
| Fc1ccc2ncn3ncnc3c2c1 | 193 to 195 °C |
| COc1ccc(C(=O)n2c3c(c4cc(F)ccc42)CC(C(=O)O)CC3)cc1 (stereo unspecified) | 197 to 198 °C |
| Nc1ncc(-c2cccc3ccccc23)o1 | 155 to 162 °C |
| CS(=O)(=O)c1ccc(-c2cnn(C3Cc4ccccc4C3)c(=O)c2-c2ccc(F)cc2)cc1 | 97 to 100 °C |
| Cc1[nH]cnc1CSCCNc1ncc(Cc2ccn(C)c(=O)c2)c(=O)[nH]1 | 202 to 204 °C |
| N#Cc1c(Nc2cccc(Cl)c2)nn(Cc2ccccc2)c1N | 234 to 236 °C |
| CCCCCCCCCCNc1nc(NCC(O)C2CC(C)(C)NC(C)(C)C2)nc(NCC(O)C2CC(C)(C)NC(C)(C)C2)n1 (stereo unspecified) | 106 to 107 °C |
| CC(=O)NCCCc1ccc(CCl)cc1 | 89 to 90 °C |
| COCc1ccc(Oc2cc(OC3CCOCC3)c3[nH]c(C4=NCC(CC(C)(C)O)S4)cc3c2)cn1 (stereo unspecified) | 108 to 110 °C |
| CC(C)c1c(CO)n(-c2ccc(F)cc2)c(=O)c2ccccc12 | 157 to 158 °C |
| Cn1nc(-c2ncc(N)nc2-c2ccccc2)ccc1=O | 202 to 204 °C |
| COC(=O)C1CCN(c2ccc3nc4[nH]c(=O)[nH]c4cc3c2)CC1 | > 310 °C |
| CCCCCN1C(=O)C2(COc3cc4c(cc32)OCO4)c2c(Cl)ccc(Cl)c21 (stereo unspecified) | 106 to 108 °C |
| CNC(=O)C(NC(=O)C(CC(C)C)C(CC(=O)OC)SC(C)=O)C(C)OCc1ccccc1 (stereo unspecified) | 105 to 106 °C |
| CCCCNC(=O)Nc1ccccc1C(=O)NC1CCN(C(c2ccccc2)c2ccccc2)CC1 | 204 to 206 °C |
| Cc1cc(C)cc(-c2cc(C)cn2-c2ccc(S(N)(=O)=O)cc2)c1 | 163 to 166 °C |
| O=c1ccn(C/C=C/COC(c2ccccc2)(c2ccccc2)c2ccccc2)c(=O)[nH]1 | 70 to 72 °C |
| CC(C)C(=O)N[C@H]1CC[C@H](CCN2CCC(c3cccc4c3CCO4)CC2)CC1 | 212 °C |
| CNc1nc(-c2ccc(Cl)c(Cl)c2)cs1 | 220 to 221 °C |
| CNc1cc(S(=O)(=O)c2ccc(N)cc2)cc(Br)n1 | 171 to 173 °C |
| COc1cc(-c2ccc(C(C)C)cc2)c(C)c2oc(=O)c(C)c(C)c12 | 172 °C |
| O=C(O)Cc1ccccc1Oc1ccc(C(F)(F)F)cc1NS(=O)(=O)c1cc(C(F)(F)F)cc(C(F)(F)F)c1 | 165 to 166 °C |
| CC(C)C(OC(=O)NC(C)(Cc1ccccc1)C(=O)NC(CO)c1ccccc1)c1ccccc1 (stereo unspecified) | 124 to 130 °C |
| N#Cc1cc(N2CCCCC2)ccc1N | 87 to 88 °C |
| Oc1ccc(Oc2cc3ccc(Cl)cc3cn2)cc1 | 190 °C |

| SMILES | melting point |
| --- | --- |
| CSc1c[nH]c2ncccc12 | 115 to 116 °C |
| N#Cc1ccc(Nc2nc(Oc3c(Br)cc(C=O)cc3Br)ccc2[N+](=O)[O-])cc1 | 218 to 220 °C |
| Cc1cc(C#N)cc(C(=O)c2c(C(C)C)c(=O)[nH]c(=O)n2CC(C)C)c1 | 200 to 201 °C |
| CC(C)N(O)C(=O)c1c([Si](C)(C)C)sc2ccccc12 | 115 to 118 °C |
| O=C1c2ccccc2C(O)N1CCN1CCC(c2noc3cc(F)ccc23)CC1 (stereo unspecified) | 172 to 173 °C |
| COCCOCC(=O)C1CCC2C3CCC4CC(O)CCC4(C)C3C(=O)CC12C (stereo unspecified) | 115 to 121 °C |
| C[C@@H](CN)CCC[C@@H](C)[C@H]1CC[C@H]2[C@@H]3CC=C4C[C@@H](O)CC[C@]4(C)[C@H]3CC[C@]12C | 150 to 152 °C |
| CCCCc1nc2c(N)nc3ccccc3c2n1CCCCNS(C)(=O)=O | 195 to 196 °C |
| Cc1ccc(-c2cc(NCCNc3cc(-c4cccs4)[nH]n3)n[nH]2)cc1 | 148 °C |
| CN(C)c1ccc(C(=O)N2CCN(CCc3ccc(Cl)cc3)CC2)cc1 | 133 to 134 °C |
| Cc1ccc(-c2ccc3c(c2)C=C(C(=O)O)CCO3)cc1 | 255 to 256 °C |
| CCOC(=O)/C=C/C(=O)Nc1ccc2ncnc(Nc3cccc(Br)c3)c2c1 | 259 to 263 °C |
| O=Cc1ccc(N(Cc2ccccc2)Cc2ccccc2)cc1[N+](=O)[O-] | 67 to 70 °C |
| C1=CCC2=C(C1)CCc1ccccc1C2 | 42.5 to 43 °C |
| CNc1nc(OC)c(C(=O)O)cc1Br | 224 to 225 °C |
| O=C1c2ccccc2C(=O)c2oc(-c3ccc(Cl)cc3)nc21 | > 260 °C |
| O=C1NC(=O)C2(CCCc3ncc(Cl)cc32)N1 (stereo unspecified) | 230 to 233 °C |
| Clc1ccc(-c2ccn3nccc3n2)cc1 | 178 to 180 °C |
| COC(=O)c1cccc(C2CCCS2)c1N (stereo unspecified) | 75 to 79 °C |
| COc1ccc2c(c1)S(=O)(=O)N=CN2CCO | 160 to 162 °C |
| CCOC(=O)c1cnc(Cl)cc1Cl | 32 to 32.5 °C |
| O=C(O)Cc1ccc2ccn(C(=O)c3ccccc3)c2c1 | 113 to 115 °C |
| NS(=O)(=O)c1ccc(S[C@H]2CC[C@H](O)CC2)s1 | 145 to 147 °C |
| c1ccc2c(c1)CCN(c1ccncc1)C2 | 95 to 96 °C |
| Clc1ccccc1Cc1cccc2[nH]ccc12 | 76 to 77 °C |
